Measurements from patent publication US10300071B2, “Compositions and methods for inhibition of mycobacteria” (priority 2014, dated 2019).
Values after ≈ are worked out from the molar mass of the structure shown. Where two headings read alike, the source gives them in different places.

Legend:
Mtb AccD6 = Mtb AccD6 (Mycobacterium tuberculosis, UniProt P9WQH5); assay: biochemical; format: biochemical; settings: for IC50: 300 μM malonyl-CoA, inhibitor 10 μM to 2000 μM; for inhibition at 20 µM: read-out: inhibition at 20 uM
Chain of Mtb AccD6 (P9WQH5 whole entry, looked up): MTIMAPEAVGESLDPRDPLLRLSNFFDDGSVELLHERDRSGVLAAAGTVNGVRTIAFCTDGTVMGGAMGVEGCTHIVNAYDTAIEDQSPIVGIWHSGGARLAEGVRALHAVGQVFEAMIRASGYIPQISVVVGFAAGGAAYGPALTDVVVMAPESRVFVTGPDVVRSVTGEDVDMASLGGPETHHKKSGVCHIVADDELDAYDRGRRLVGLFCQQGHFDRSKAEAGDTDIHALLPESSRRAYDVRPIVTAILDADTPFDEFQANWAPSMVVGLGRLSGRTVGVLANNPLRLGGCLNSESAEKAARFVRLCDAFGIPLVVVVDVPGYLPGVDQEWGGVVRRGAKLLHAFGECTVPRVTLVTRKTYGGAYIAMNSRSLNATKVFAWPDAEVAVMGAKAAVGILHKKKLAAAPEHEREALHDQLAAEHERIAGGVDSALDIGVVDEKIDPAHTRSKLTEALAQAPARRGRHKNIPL

Mtb strain mc^2-7000 = assay: microbe, parasite or virus in culture; format: cell-based, Mycobacterium tuberculosis; settings: 6 days incubation at 37° C., resazurin, read on the 7th day
[1] = Mycobacterium tuberculosis, 144 h, read-out: MIC

| Structure (SMILES) | IC50 (Mtb AccD6; read-out: IC50) | concentrations at which not toxic, s. cerevisiae cytotoxicity (S. cerevisiae) | concentrations at which not toxic, human fibroblast cytotoxicity (human fibroblast) | MIC (Mtb strain mc^2-7000; [1]) | inhibition at 20 µM (Mtb AccD6) | MIC (Mtb strain mc^2-7000) | IC50 (Mtb AccD6) |
| --- | --- | --- | --- | --- | --- | --- | --- |
| CC(C)NC(=O)COc1ccc(Oc2cnc3cc(Cl)ccc3n2)cc1 [NZ-307, 2-{4-[(6-chloroquinoxalin-2-yl)oxy]phenoxy}-N-(propan-2-yl)acetamide] | 2500 nM | ≥ 100 µM | ≥ 100 µM | 3 µM (≈ 1.12 µg/mL) |  |  |  |
| COC(=O)C(C)c1ccc(Oc2cnc3cc(Cl)ccc3n2)cc1 (stereo not shown) [NZ-308, methyl 2-{4-[(6-chloroquinoxalin-2-yl)oxy]phenyl}propanoate] | 8000 nM | ≥ 100 µM | ≥ 100 µM | 4.5 µM (≈ 1.54 µg/mL) |  |  |  |
| CC(C(=O)O)c1ccc(Oc2cnc3cc(Cl)ccc3n2)cc1 (stereo not shown) [NZ-309, 2-{4-[(6-chloroquinoxalin-2-yl)oxy]phenyl}propanoic acid] | 172 nM | ≥ 100 µM | ≥ 100 µM | 12 µM (≈ 3.95 µg/mL) |  |  |  |
| CONC(=O)C(C)c1ccc(Oc2cnc3cc(Cl)ccc3n2)cc1 (stereo not shown) [NZ-310, 2-{4-[(6-chloroquinoxalin-2-yl)oxy]phenyl}-N-methoxypropanamide] | 182 nM | ≥ 100 µM | ≥ 100 µM | 6 µM (≈ 2.15 µg/mL) |  |  |  |
| CC(C(=O)O)c1ccc(Oc2nc3ccc(Cl)cc3s2)cc1 (stereo not shown) [NZ-312, 2-{4-[(6-chloro-1,3-benzothiazol-2-yl)oxy]phenyl}propanoic acid] | 260 nM | ≥ 100 µM | ≥ 100 µM | 6 µM (≈ 2 µg/mL) |  |  |  |
| COC(=O)C(C)(C)Oc1ccc(Oc2cnc3cc(Cl)ccc3n2)cc1 [NZ-314, methyl 2-{4-[(6-chloroquinoxalin-2-yl)oxy]phenoxy}-2-methylpropanoate] | 17500 nM | ≥ 100 µM | ≥ 100 µM | 6 µM (≈ 2.24 µg/mL) |  |  |  |
| CC(C)(Oc1ccc(Oc2cnc3cc(Cl)ccc3n2)cc1)C(=O)O [NZ-315, 2-{4-[(6-chloroquinoxalin-2-yl)oxy]phenoxy}-2-methylpropanoic acid] | 1700 nM | ≥ 100 µM | ≥ 100 µM | 25 µM (≈ 8.97 µg/mL) |  |  |  |
| CC(C)(Oc1ccc(Oc2nc3ccc(Cl)cc3s2)cc1)C(=O)O [NZ-318, 2-{4-[(6-chloro-1,3-benzothiazol-2-yl)oxy]phenoxy}-2-methylpropanoic acid] | 1500 nM | ≥ 100 µM | ≥ 100 µM | 12 µM (≈ 4.37 µg/mL) |  |  |  |
| CONC(=O)C(C)(C)Oc1ccc(Oc2nc3ccc(Cl)cc3s2)cc1 [NZ-319, 2-{4-[(6-chloro-1,3-benzothiazol-2-yl)oxy]phenoxy}-N-methoxy-2-methylpropanamide] | 20000 nM | ≥ 100 µM | ≥ 100 µM | 6 µM (≈ 2.36 µg/mL) |  |  |  |
| CC(C)(C)OC(=O)Nc1ccc(Oc2cnc3cc(Cl)ccc3n2)cc1 [NZ-321, tert-butyl N-{4-[(6-chloroquinoxalin-2-yl)oxy]phenyl}carbamate] | 20000 nM | ≥ 100 µM | ≥ 100 µM | 50 µM (≈ 18.6 µg/mL) |  |  |  |
| O=C(COc1ccc(Oc2cnc3cc(Cl)ccc3n2)cc1)NOCC1CC1 [NZ-323, 2-{4-[(6-chloroquinoxalin-2-yl)oxy]phenoxy}-N-(cyclopropylmethoxy)acetamide] | 3600 nM | ≥ 100 µM | ≥ 100 µM | 6 µM (≈ 2.4 µg/mL) |  |  |  |
| CC(C)ONC(=O)COc1ccc(Oc2cnc3cc(Cl)ccc3n2)cc1 [NZ-326, 2-{4-[(6-chloroquinoxalin-2-yl)oxy]phenoxy}-N-(propan-2-yloxy)acetamide] | 2500 to 4400 nM | ≥ 100 µM | ≥ 100 µM | 3 µM (≈ 1.16 µg/mL) |  |  |  |
| CC(C)NC(=O)C(C)c1ccc(Oc2nc3ccc(Cl)cc3s2)cc1 (stereo not shown) [NZ-327, 2-{4-[(6-chloro-1,3-benzothiazol-2-yl)oxy]phenyl}-N-(propan-2-yl)propanamide] | 300 nM | ≥ 100 µM | ≥ 100 µM | 12 µM (≈ 4.5 µg/mL) |  |  |  |
| COC(=O)C(C)c1ccc(Oc2nc3ccc(F)cc3s2)cc1 (stereo not shown) [NZ-328, methyl 2-{4-[(6-fluoro-1,3-benzothiazol-2-yl)oxy]phenyl}propanoate] | 10000 nM | ≥ 100 µM | ≥ 100 µM | 12 µM (≈ 3.98 µg/mL) |  |  |  |
| CC(C(=O)O)c1ccc(Oc2nc3ccc(F)cc3s2)cc1 (stereo not shown) [NZ-329, 2-{4-[(6-fluoro-1,3-benzothiazol-2-yl)oxy]phenyl}propanoic acid] | 370 nM | ≥ 100 µM | ≥ 100 µM | 12 µM (≈ 3.81 µg/mL) |  |  |  |
| COc1ccc2nc(Oc3ccc(C(C)C(=O)O)cc3)sc2c1 (stereo not shown) [NZ-334, 2-{4-[(6-methoxy-1,3-benzothiazol-2-yl)oxy]phenyl}propanoic acid] | 10000 nM | ≥ 100 µM | ≥ 100 µM | 25 µM (≈ 8.23 µg/mL) |  |  |  |
| O=C(O)C(O)c1ccc(Oc2nc3ccc(Cl)cc3s2)cc1 (stereo not shown) [NZ-337, 2-{4-[(6-chloro-1,3-benzothiazol-2-yl)oxy]phenyl}-2-hydroxyacetic acid] | 2300 nM | ≥ 100 µM | ≥ 100 µM | 25 µM (≈ 8.39 µg/mL) |  |  |  |
| COc1ccc2nc(Oc3ccc(NC(=O)NC(C)C)cc3)sc2c1 [NZ-361, 1-{4-[(6-methoxy-1,3-benzothiazol-2-yl)oxy]phenyl}-3-(propan-2-yl)urea] |  | ≥ 100 µM | ≥ 100 µM | 3.2 µM (≈ 1.14 µg/mL) | 19% |  |  |
| CC(C)NC(=O)Nc1ccc(Oc2nc3ccc(O)cc3s2)cc1 [NZ-362, 1-{4-[(6-hydroxy-1,3-benzothiazol-2-yl)oxy]phenyl}-3-(propan-2-yl)urea] |  | ≥ 100 µM | ≥ 100 µM | 6.5 µM (≈ 2.23 µg/mL) | 20% |  |  |
| CC(C(=O)N1CCNCC1)c1ccc(Oc2nc3ccc(Cl)cc3s2)cc1 (stereo not shown) [NZ-364, 2-{4-[(6-chloro-1,3-benzothiazol-2-yl)oxy]phenyl}-1-(piperazin-1-yl)propan-1-one] |  | ≥ 100 µM | ≥ 100 µM | 1.34 µM (≈ 0.539 µg/mL) | 20% |  |  |
| CC(C(=O)N1CCOCC1)c1ccc(Oc2nc3ccc(Cl)cc3s2)cc1 (stereo not shown) [NZ-365, 2-{4-[(6-chloro-1,3-benzothiazol-2-yl)oxy]phenyl}-1-(morpholin-4-yl)propan-1-one] | 6200 nM | 50 to 100 µM | ≥ 100 µM | 18.9 µM (≈ 7.61 µg/mL) |  |  |  |
| CC(C(=O)N1CCN(C)CC1)c1ccc(Oc2nc3ccc(Cl)cc3s2)cc1 (stereo not shown) [NZ-366, 2-{4-[(6-chloro-1,3-benzothiazol-2-yl)oxy]phenyl}-1-(4-methylpiperazin-1-yl)propan-1-one] | 4900 nM | 25 to 50 µM | 25 to 50 µM | 0.56 µM (≈ 0.233 µg/mL) |  |  |  |
| CC(C(=O)N(C)C)c1ccc(Oc2nc3ccc(Cl)cc3s2)cc1 (stereo not shown) [NZ-368, 2-{4-[(6-chloro-1,3-benzothiazol-2-yl)oxy]phenyl}-N,N-dimethylpropanamide] | 3600 nM | 25 to 50 µM | ≥ 100 µM | 2.07 µM (≈ 0.747 µg/mL) |  |  |  |
| CC(C(=O)NCCO)c1ccc(Oc2nc3ccc(Cl)cc3s2)cc1 (stereo not shown) [NZ-370, 2-{4-[(6-chloro-1,3-benzothiazol-2-yl)oxy]phenyl}-N-(2-hydroxyethyl)propanamide] | 1000 nM | ≥ 100 µM | ≥ 100 µM | 1.8 µM (≈ 0.678 µg/mL) |  |  |  |
| CC(C(=O)NC(CO)CO)c1ccc(Oc2nc3ccc(Cl)cc3s2)cc1 (stereo not shown) [NZ-371, 2-{4-[(6-chloro-1,3-benzothiazol-2-yl)oxy]phenyl}-N-(1,3-dihydroxypropan-2-yl)propanamide] | 860 nM | ≥ 100 µM | ≥ 100 µM | 20 µM (≈ 8.13 µg/mL) |  |  |  |
| CC(C)NC(=O)Nc1ccc(Oc2nc3cc(F)ccc3s2)cc1 [NZ-373, 1-{4-[(5-fluoro-1,3-benzothiazol-2-yl)oxy]phenyl}-3-(propan-2-yl)urea] | 1660 nM | ≥ 100 µM | ≥ 100 µM |  |  | Not Active |  |
| CC(C)NC(=O)Nc1ccc(Oc2nc3c(F)cccc3s2)cc1 [NZ-374, 1-{4-[(4-fluoro-1,3-benzothiazol-2-yl)oxy]phenyl}-3-(propan-2-yl)urea] |  | ≥ 100 µM | ≥ 100 µM |  |  | Not Active | Not Active |
| CC(C)NC(=O)Nc1ccc(Oc2nc3cc(Cl)ccc3s2)cc1 [NZ-376, 1-{4-[(5-chloro-1,3-benzothiazol-2-yl)oxy]phenyl}-3-(propan-2-yl)urea] | 874 nM | ≥ 100 µM | ≥ 100 µM |  |  | Not Active |  |
